According to ChEMBL document CHEMBL1201862, “PubChem BioAssay data set” (2004):
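1) Cells in 96-well plates. 2) Compound, 48 h, 5 concentrations. 3) Linear interpolation between surrounding doses. 4) Unreached endpoint = highest concentration. The concentration for 50% growth inhibition is given as GI50.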 The source made the active and inactive calls. No stated cut-off is given here; in the data, active = GI50 up to about 1.1 µM and inactive = higher.

How the values were obtained:
Test in all cases: growth of human tumour cells (NCI), 48 h
[1] = tested on: HT-29
[2] = tested on: SK-MEL-28
[3] = tested on: Malme-3M
[4] = tested on: SF-268
[5] = tested on: MDA-N
[6] = tested on: CCRF-CEM
[7] = tested on: OVCAR-5
[8] = tested on: HCC 2998
[9] = tested on: NCI-H522
[10] = tested on: HOP-62
[11] = tested on: 786-0
[12] = tested on: KM12
[13] = tested on: A549
[14] = tested on: MCF7
[15] = tested on: CAKI-1
[16] = tested on: PC-3
[17] = tested on: BT-549
[18] = tested on: T47D
[19] = tested on: LOX IMVI
[20] = tested on: HCT-15

SMILES: Nc1ccc2nc3n(c2c1)C(c1c(F)cccc1F)SC3 (stereo not given)
- GI50 [1]: > 100 µM (inactive)
- GI50 [2]: > 100 µM (inactive)
- GI50 [3]: > 100 µM (inactive)
- GI50 [4]: > 100 µM (inactive)
- GI50 [5]: > 100 µM (inactive)
- GI50 [6]: 68.2 µM (inactive)
- GI50 [7]: > 100 µM (inactive)
- GI50 [8]: > 100 µM (inactive)
- GI50 [9]: > 100 µM (inactive)
- GI50 [10]: > 100 µM (inactive)
- GI50 [11]: > 100 µM (inactive)
- GI50 [12]: > 100 µM (inactive)
- GI50 [13]: > 100 µM (inactive)
- GI50 [14]: > 100 µM (inactive)
- GI50 [15]: > 100 µM (inactive)
- GI50 [16]: > 100 µM (inactive)
- GI50 [17]: > 100 µM (inactive)
- GI50 [18]: > 100 µM (inactive)
- GI50 [19]: > 100 µM (inactive)
- GI50 [20]: > 100 µM
